Assays:
recombinant DGKα = target: T1, recombinant DGKα (Rattus norvegicus, UniProt P51556); test: Gel-based ATP acyl phosphate chemical proteomic assay; format: binding; conditions: compounds 100 μM (ATP 1 mM; RF001 at indicated concentrations), 30 min; probe 10 μM
T1 construct: expressed in transfected cells; host or cells: HEK293T (SILAC HEK293T for LC-MS)
Experimental: Cell pellets were resuspended in kinase buffer (Dulbecco's PBS (DPBS, Hyclone), 20 mM MgCl2, EDTA-free protease inhibitors (Pierce)) and then lysed by sonication (3×1 sec pulse, 20% amplitude). The cell lysates were then subjected to centrifugation (100,000×g, 45 min at 4° C.) to isolate the cytosolic fraction in the supernatant and the membrane fraction as a pellet. The membrane pellet was resuspended in kinase buffer by sonication. […] The only exception was experiments involving DGKE; recombinant DGKE protein was most prominently expressed in the membrane fraction and so this fraction was utilized to study DGKE enzyme (see FIG. 8). Protein concentrations were measured using the Bio-Rad DC protein assay. Samples were stored at −80° C. until use.
Proteome concentration was adjusted to 2 mg/mL in kinase buffer. Proteomes were first pre-treated with compound (0.6 μL, 50× stock in DMSO) mixed with gentle flicking, and incubated for 30 min at 25° C. in a microfuge tube (30 μL reaction volume). […] Reactions were then quenched with 10 AL of 4×SDS-PAGE loading buffer. Protein samples (15 μL) were loaded onto 4-20% TGX Stain-Free Protein Midi Gel and resolved by SDS-PAGE at 150V for 55 min. Proteins were then transferred to a nitrocellulose blot by Bio-Rad Trans-Blot Turbo Transfer System (25V. 10 min) to enhance sensitivity. The nitrocellulose blot was then incubated in blocking solution (30 mL, 3% BSA in TBS-T) for 1 h at 25° C. with gentle shaking. The blot was then transferred immediately to antibody solution (30 mL, 5% BSA in ddH2O with 0.1% Tween20 and 1:3000 Streptavidin DyLight 550) and incubated for 2 h at 25° C. with gentle shaking. The blot was then rinsed 5 times for 5 min in TBS-T. and then transferred into ddH2O. The blot was then imaged by in-blot fluorescence scanning on a ChemiDoc MP Imaging System. Fluorescence intensity signals were normalized to total lane protein using the Bio-rad Stain Free imaging (Posch et al., 2013).
The percentage of enzyme activity remaining was determined by comparing integrated band intensities or luminescence of inhibitor—with DMSO-treated samples for gel-based chemical proteomic or ADP-glo assays, respectively. For both chemical proteomic and ADP-glo methods, nonlinear regression analysis was used to determine the IC50 values from a dose-response curve generated using GraphPad Prism. Data are shown as mean±s.e.m. Determination of significance was performed by one-way ANOVA. All statistical analyses were performed using GraphPad Prism.

[1] = target: Alpha (DGK alpha; only in reference sheet cells) (Rattus norvegicus, UniProt P51556); test: DGK isoform % Activity screen; format: biochemical; conditions: for activity at 100 µM: read-out: 100 uM % Activity (section without isoform head; Alpha); for activity at 1000 µM: read-out: 1 mM % Activity (section without isoform head; Alpha)
Zeta (DGK zeta) = Zeta (DGK zeta) (Homo sapiens, UniProt Q13574); test: DGK isoform % Activity screen; format: biochemical; conditions: for activity at 1000 µM: read-out: 1 mM % Activity, Zeta
Gamma (DGK gamma) = Gamma (DGK gamma) (Homo sapiens, UniProt P49619); test: DGK isoform % Activity screen; format: biochemical; conditions: for activity at 1000 µM: read-out: 1 mM % Activity, Gamma
Sequence of Gamma (DGK gamma) (P49619 whole entry, canonical isoform): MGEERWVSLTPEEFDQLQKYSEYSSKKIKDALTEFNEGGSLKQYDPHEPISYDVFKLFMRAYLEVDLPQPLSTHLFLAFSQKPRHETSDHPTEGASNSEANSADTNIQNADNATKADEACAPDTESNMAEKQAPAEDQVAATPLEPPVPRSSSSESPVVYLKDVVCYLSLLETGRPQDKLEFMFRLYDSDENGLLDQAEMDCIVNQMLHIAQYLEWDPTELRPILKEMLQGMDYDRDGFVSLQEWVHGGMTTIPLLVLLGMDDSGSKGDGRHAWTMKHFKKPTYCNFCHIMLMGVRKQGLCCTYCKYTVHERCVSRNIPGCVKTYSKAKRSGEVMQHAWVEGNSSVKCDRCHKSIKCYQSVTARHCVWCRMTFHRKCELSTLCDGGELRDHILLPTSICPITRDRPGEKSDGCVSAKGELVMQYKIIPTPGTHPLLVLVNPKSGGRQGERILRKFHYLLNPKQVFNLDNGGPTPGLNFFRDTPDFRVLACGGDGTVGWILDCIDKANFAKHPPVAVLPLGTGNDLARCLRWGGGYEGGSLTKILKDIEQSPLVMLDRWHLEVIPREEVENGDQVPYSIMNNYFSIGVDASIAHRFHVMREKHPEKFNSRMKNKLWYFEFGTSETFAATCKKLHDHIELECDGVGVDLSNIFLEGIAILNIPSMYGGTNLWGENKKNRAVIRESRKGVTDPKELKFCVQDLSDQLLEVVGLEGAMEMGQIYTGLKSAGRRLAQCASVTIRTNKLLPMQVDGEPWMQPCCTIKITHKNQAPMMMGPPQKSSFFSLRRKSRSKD

Sequence of Zeta (DGK zeta) (Q13574 whole entry, canonical isoform): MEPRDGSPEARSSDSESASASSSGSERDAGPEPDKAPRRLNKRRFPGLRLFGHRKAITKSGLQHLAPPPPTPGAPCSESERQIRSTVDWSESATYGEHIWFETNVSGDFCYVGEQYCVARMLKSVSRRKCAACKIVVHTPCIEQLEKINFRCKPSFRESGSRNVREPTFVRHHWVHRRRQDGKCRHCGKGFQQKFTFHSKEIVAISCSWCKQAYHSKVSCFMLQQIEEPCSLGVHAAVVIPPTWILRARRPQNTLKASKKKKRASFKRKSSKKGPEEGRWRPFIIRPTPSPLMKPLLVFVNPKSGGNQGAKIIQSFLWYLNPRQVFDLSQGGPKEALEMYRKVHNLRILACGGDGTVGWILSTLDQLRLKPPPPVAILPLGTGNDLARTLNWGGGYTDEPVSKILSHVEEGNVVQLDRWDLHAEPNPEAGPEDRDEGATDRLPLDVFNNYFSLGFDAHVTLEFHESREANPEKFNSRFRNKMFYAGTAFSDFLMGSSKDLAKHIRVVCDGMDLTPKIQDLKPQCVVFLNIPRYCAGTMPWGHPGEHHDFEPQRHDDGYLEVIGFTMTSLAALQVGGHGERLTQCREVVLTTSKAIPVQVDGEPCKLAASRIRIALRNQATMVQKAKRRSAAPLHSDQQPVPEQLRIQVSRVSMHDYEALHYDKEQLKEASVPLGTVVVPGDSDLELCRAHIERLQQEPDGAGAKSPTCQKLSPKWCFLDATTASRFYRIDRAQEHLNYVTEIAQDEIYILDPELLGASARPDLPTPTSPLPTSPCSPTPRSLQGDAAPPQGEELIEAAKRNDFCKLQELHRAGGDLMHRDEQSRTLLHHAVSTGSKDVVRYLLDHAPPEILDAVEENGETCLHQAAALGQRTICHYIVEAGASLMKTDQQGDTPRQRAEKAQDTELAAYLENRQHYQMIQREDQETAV
Sequence of Alpha (DGK alpha; only in reference sheet cells) (P51556 whole entry, canonical isoform): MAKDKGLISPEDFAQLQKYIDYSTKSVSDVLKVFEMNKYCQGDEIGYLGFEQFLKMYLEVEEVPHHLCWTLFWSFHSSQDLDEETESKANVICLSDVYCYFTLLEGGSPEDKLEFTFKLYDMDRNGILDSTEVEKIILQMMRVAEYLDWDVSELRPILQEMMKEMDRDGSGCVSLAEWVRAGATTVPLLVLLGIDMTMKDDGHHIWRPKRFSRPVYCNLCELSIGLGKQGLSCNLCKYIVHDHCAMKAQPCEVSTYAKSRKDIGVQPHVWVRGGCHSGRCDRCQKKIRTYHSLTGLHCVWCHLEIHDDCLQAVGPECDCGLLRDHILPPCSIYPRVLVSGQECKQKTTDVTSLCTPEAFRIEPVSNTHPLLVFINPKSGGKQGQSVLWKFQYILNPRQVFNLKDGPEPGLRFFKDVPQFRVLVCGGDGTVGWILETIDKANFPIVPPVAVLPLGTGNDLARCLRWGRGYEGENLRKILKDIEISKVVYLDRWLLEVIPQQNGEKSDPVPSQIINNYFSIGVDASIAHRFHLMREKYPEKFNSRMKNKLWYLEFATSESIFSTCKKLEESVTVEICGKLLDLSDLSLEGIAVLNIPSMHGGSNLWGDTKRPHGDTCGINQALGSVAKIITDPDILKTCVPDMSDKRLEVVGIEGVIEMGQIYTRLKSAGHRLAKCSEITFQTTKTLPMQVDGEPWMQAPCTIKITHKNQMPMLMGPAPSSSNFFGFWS
T1 sequence (P51556 whole entry): as the sequence (P51556 whole entry, canonical isoform) above

Cc1nc2sccn2c(=O)c1CCN1CCC(=C(c2ccccc2)c2ccc(F)cc2)CC1 [R59022]
blockade of DGKα ATP probe labeling (recombinant DGKα): blocked DGKα probe labeling

O=c1c2ccccc2[nH]c(=S)n1CCN1CCC(=C(c2ccc(F)cc2)c2ccc(F)cc2)CC1 [R59949]
blockade of DGKα ATP probe labeling (recombinant DGKα): blocked DGKα probe labeling

Fc1ccc(C(c2ccc(F)cc2)N2CCNCC2)cc1 [TH001]
activity at 100 µM [1]: 72%
activity at 1000 µM [1]: 0%
activity at 100 µM (Zeta (DGK zeta)): 102%
activity at 1000 µM (Zeta (DGK zeta)): 0%
activity at 100 µM (Gamma (DGK gamma)): 99%
activity at 1000 µM (Gamma (DGK gamma)): 0%

c1ccc2c(c1)-c1ccccc1C2N1CCNCC1 [TH002]
activity at 100 µM [1]: 84%
activity at 1000 µM [1]: 0%
activity at 100 µM (Zeta (DGK zeta)): 98%
activity at 1000 µM (Zeta (DGK zeta)): 0%

CN1C2CCC1CC(OC(c1ccccc1)c1ccccc1)C2 (stereo not drawn) [TH004]
activity at 100 µM (Zeta (DGK zeta)): 82%
activity at 1000 µM (Zeta (DGK zeta)): 21%

CN(C)CCOc1ccc(/C(=C(/CCCl)c2ccccc2)c2ccccc2)cc1 [TH005]
activity at 100 µM [1]: 103%
activity at 1000 µM [1]: 14%
activity at 100 µM (Zeta (DGK zeta)): 86%
activity at 1000 µM (Zeta (DGK zeta)): 0%

Fc1ccc(C(c2ccc(F)cc2)C2CCNCC2)cc1 [TH010]
activity at 1000 µM [1]: 64%
activity at 100 µM (Zeta (DGK zeta)): 96%
activity at 1000 µM (Zeta (DGK zeta)): 30%

c1ccc(C(=C2CCNCC2)c2ccccc2)cc1 [TH011]
activity at 100 µM [1]: 78%
activity at 1000 µM [1]: 0%
activity at 100 µM (Zeta (DGK zeta)): 96%
activity at 1000 µM (Zeta (DGK zeta)): 0%

c1ccc(C(c2ccccc2)C2CCNCC2)cc1 [TH012]
activity at 1000 µM [1]: 41%
activity at 100 µM (Zeta (DGK zeta)): 99%
activity at 1000 µM (Zeta (DGK zeta)): 15%

Fc1ccc(C(=C2CCCN(Cc3ccccc3)C2)c2ccc(F)cc2)cc1 [TH014]
activity at 1000 µM [1]: 160%
activity at 100 µM (Zeta (DGK zeta)): 140%
activity at 1000 µM (Zeta (DGK zeta)): 327%

CC(=O)N1CCN(C(c2ccc(F)cc2)c2ccc(F)cc2)CC1 [TH016]
activity at 1000 µM [1]: 139%
activity at 100 µM (Zeta (DGK zeta)): 98%
activity at 1000 µM (Zeta (DGK zeta)): 108%

Cc1ccc(C(=C2CCNCC2)c2ccc(C)cc2)cc1 [TH019]
activity at 100 µM [1]: 92%
activity at 1000 µM [1]: 1%
activity at 100 µM (Zeta (DGK zeta)): 103%
activity at 1000 µM (Zeta (DGK zeta)): 0%

Fc1ccc(C(c2ccc(F)cc2)N2CCN(Cc3ccc4ccccc4n3)CC2)cc1 [TH022]
activity at 100 µM [1]: 103%
activity at 1000 µM [1]: 60%
activity at 100 µM (Zeta (DGK zeta)): 135%
activity at 1000 µM (Zeta (DGK zeta)): 193%

Fc1ccc(C(c2ccc(F)cc2)N2CCN(C3CCNCC3)CC2)cc1 [TH024]
activity at 100 µM [1]: 84%
activity at 1000 µM [1]: 3%
activity at 100 µM (Zeta (DGK zeta)): 72%
activity at 1000 µM (Zeta (DGK zeta)): 0%

COc1ccc(C(=C2CCNCC2)c2ccc(OC)cc2)cc1 [TH025]
activity at 100 µM [1]: 79%
activity at 1000 µM [1]: 4.4%
activity at 100 µM (Zeta (DGK zeta)): 103%
activity at 1000 µM (Zeta (DGK zeta)): 0%

OC(c1ccc(F)cc1)(c1ccc(F)cc1)C1CCNCC1 [TH028]
activity at 100 µM [1]: 96%
activity at 1000 µM [1]: 0%
activity at 100 µM (Zeta (DGK zeta)): 125%
activity at 1000 µM (Zeta (DGK zeta)): 0%

Fc1ccc(C(=C2CCN(Cc3ccc4ccccc4n3)CC2)c2ccc(F)cc2)cc1 [TH029]
activity at 100 µM [1]: 125%
activity at 1000 µM [1]: 73%
activity at 100 µM (Zeta (DGK zeta)): 169%
activity at 1000 µM (Zeta (DGK zeta)): 252%

OCCN1CCN(C(c2ccc(F)cc2)c2ccc(F)cc2)CC1 [TH030]
activity at 100 µM [1]: 103%
activity at 1000 µM [1]: 36%
activity at 100 µM (Zeta (DGK zeta)): 91%
activity at 1000 µM (Zeta (DGK zeta)): 5%

OCCCN1CCN(C(c2ccc(F)cc2)c2ccc(F)cc2)CC1 [TH031]
activity at 100 µM [1]: 107%
activity at 1000 µM [1]: 26%
activity at 100 µM (Zeta (DGK zeta)): 105%
activity at 1000 µM (Zeta (DGK zeta)): 0%

Fc1ccc(C(c2ccc(F)cc2)N2CCN(CCCN3CCCC3)CC2)cc1 [TH032]
activity at 100 µM [1]: 94%
activity at 1000 µM [1]: 8%
activity at 100 µM (Zeta (DGK zeta)): 80%
activity at 1000 µM (Zeta (DGK zeta)): 0%

Fc1ccc(C(c2ccc(F)cc2)N2CCN(CCCN3CCN(C(c4ccc(F)cc4)c4ccc(F)cc4)CC3)CC2)cc1 [TH033]
activity at 100 µM [1]: 72%
activity at 1000 µM [1]: 4%
activity at 100 µM (Zeta (DGK zeta)): 82%

CS(=O)(=O)N1CCC(=C(c2ccc(F)cc2)c2ccc(F)cc2)CC1 [TH035]
activity at 100 µM [1]: 88%
activity at 1000 µM [1]: 40%
activity at 100 µM (Zeta (DGK zeta)): 112%
activity at 1000 µM (Zeta (DGK zeta)): 100%

CS(=O)(=O)N1CCN(C(c2ccc(F)cc2)c2ccc(F)cc2)CC1 [TH036]
activity at 100 µM [1]: 93%
activity at 1000 µM [1]: 74%
activity at 100 µM (Zeta (DGK zeta)): 108%
activity at 1000 µM (Zeta (DGK zeta)): 105%

OC(c1ccc(C(F)(F)F)cc1)(c1ccc(C(F)(F)F)cc1)C1CCNCC1 [TH039]
activity at 100 µM [1]: 81%
activity at 1000 µM [1]: 6%
activity at 100 µM (Zeta (DGK zeta)): 94%
activity at 1000 µM (Zeta (DGK zeta)): 1%
activity at 100 µM (Gamma (DGK gamma)): 91%
activity at 1000 µM (Gamma (DGK gamma)): 1%

Clc1ccc(C(=C2CCNCC2)c2ccc(Cl)cc2)cc1 [TH040]
activity at 100 µM [1]: 78%
activity at 1000 µM [1]: 4%
activity at 100 µM (Zeta (DGK zeta)): 85%
activity at 1000 µM (Zeta (DGK zeta)): 0%
activity at 100 µM (Gamma (DGK gamma)): 101%
activity at 1000 µM (Gamma (DGK gamma)): 5%

— patent US12643867B2, “Compositions and uses thereof” (University of Virginia Patent Foundation, priority 2017, dated 2026)
